Source: patent US4180672A, “2-Organothio-2-cyclopentenones, organothio-cyclopentanes derived therefrom” (Teijin Limited, priority 1976, dated 1979)
Like-named read-outs stand apart in the source and are kept apart here.

How the values were obtained:
[1] = tested on: formation of ulcer in rats induced by indomethacin; assay: inhibiting action on formation of ulcer in rats induced by indomethacin (peroral); type: in vivo, rats (Sprague Dawley); settings: for Ulcer formation (ulcer coefficient) Average value ± S.E.M.: 7 rats
Procedure: By the method of Y. H. Lee et al. [Arch. Int. Pharmacodyn. Ther., 192, 370 (1971)], the inhibiting action of dl-11-deoxy-15-methyl-7-thia-PGE1 methyl ester (a compound of formula II) on the formation of ulcer in rats induced by indomethacin, a typical non-steroid anti-inflammatory agent, was evaluated.
Male rats (Sprague Dawley species; body weight 300 g) were used in the experiment. These rats had been caused to fast for 24 hours in separate cages before the initiation of the experiment. Indomethacin was orally administered to these rats, and 6 hours later, they were killed. Formation of ulcer in the fundus part was examined by measuring the area of the ulcer-forming part under microscope. The dl-11-deoxy-15-methyl-7-thia-PGE1 methyl ester was orally administered at the end of 30 minutes and 3 hours, respectively, after the administration of indomethacin. The ulcer formation inhibiting rate of the dl-11-deoxy-15-methyl-7-thia-PGE1 methyl ester against a predetermined dose of indomethacin was determined.
The indomethacin was administered as a 0.5 ml aqueous suspension (containing two drops of a Tween-type nonionic surfactant per 14 ml of water). The dl-11-deoxy-15-methyl-7-thia-PGE1 methyl ester was given in the form of a solution in a phosphate buffer containing 0.9% of sodium chloride.
In the same way as in Referential Example 1, the compounds shown in Table 2 were examined for their inhibiting action on ulcer formation.

[2] = acute toxicity (iv) in mice; settings: mouse, in vivo

SMILES	Inhibiting rate (ulcer formation) ([1]; dose 0.4 mg/kg, po) [%]	Inhibiting rate (ulcer formation) ([1]; dose 1.0 mg/kg, po) [%]	Inhibiting rate (ulcer formation) ([1]; dose 2.0 mg/kg, po) [%]	also measured
CCCCCC(C)(O)/C=C/C1CCC(=O)C1SCCCCCC(=O)OC (racemic) [No. 101, dl-11-deoxy-15-methyl-7-thia-PGE1 methyl ester]	66	99	–	ED50 ([1]; Rattus norvegicus, po, peroral, indomethacin 20 mg/kg peroral, rats, read-out: ED50 (inhibition of ulcer formation induced by indomethacin)): 0.3 mg/kg; Inhibiting rate (ulcer formation) ([1]; dose 0.1 mg/kg, po): 16%; Ulcer formation (ulcer coefficient) Average value ± S.E.M. ([1]; dose 0.1 mg/kg, po, indomethacin 20 mg/kg peroral): 57.5 ± 14.1; Ulcer formation (ulcer coefficient) Average value ± S.E.M. ([1]; dose 0.4 mg/kg, po, indomethacin 20 mg/kg peroral, *** p 0.001): 23.3 ± 12.4; Ulcer formation (ulcer coefficient) Average value ± S.E.M. ([1]; dose 1.0 mg/kg, po, indomethacin 20 mg/kg peroral, *** p 0.001): 0.6 ± 0.05; inhibition of ulcer formation (in words) ([1]; rats, indomethacin-induced, peroral): markedly inhibited ulcer formation
CCCCCCCS[C@H]1C(O)CC[C@@H]1SCCCCCC(=O)OC (some centres unmarked) [No. 159, methyl 7,13-dithia-11-hydroxyprostanoate]	15	–	78	–
CCCCCC(C)(O)CS[C@H]1C(=O)CC[C@@H]1SCCCCCC(=O)O (some centres unmarked) [No. 154, 7,13-dithia-15-hydroxy-15-methyl-11-oxo-prostanoic acid]	–	–	80	LD50 ([2]; acute toxicity (iv) in mice, read-out: LD50): 350 mg/kg
CCCCC[C@H](O)/C=C/[C@@H]1CCC(=O)[C@H]1SCCCCCC(=O)OC [No. 89, 11-Deoxy-7-thia-8,12-diepiprostaglandin E1 methyl ester]	57	65	–	LD50 ([2]; iv): 20 mg/kg
CCCCCCCS[C@H]1CCC(O)[C@@H]1SCCCCCC(=O)OC (some centres unmarked) [No. 171, methyl 7,13-dithia-9-hydroxyprostanoate]	12	–	–	Inhibiting rate (ulcer formation) ([1]; dose 5.0 mg/kg, po): 75%
CCCCC[C@H](O)/C=C/[C@@H]1[C@@H](C/C=C\CCCC(=O)O)[C@@H](O)C[C@H]1O [PGF2α, reference compound]	–	–	–	LD50 ([2]; iv, female, iv, mice, read-out: acute toxicity LD50): 56 mg/kg; LD50 ([2]; male, iv, mice, read-out: acute toxicity LD50): 60 mg/kg
COC(=O)CCCCCSC1CCC(O)C1SCCCc1ccccc1 (centres unmarked) [No. 190, methyl 7,13-dithia-11-hydroxy-16-phenyl-17,18,19,20-tetranor-prostanoate]	46	57	–	–
CCCCCC(C)(O)CS[C@H]1CCC(O)[C@@H]1SCCCCCC(=O)OC (some centres unmarked) [No. 182, methyl 7,13-dithia-9,15-dihydroxy-15-methylprostanoate]	25	–	80	–
